Reference: patent US20100239556A1, “PROMOTING ECM PRODUCTION BY FIBROBLAST CELLS AND/OR PROMOTING MIGRATION OF FIBROBLAST CELLS IN A BIOLOGICAL SYSTEM” (TGR BioScience Pty Ltd., priority 2006, published 2010)

Legend:
[1] = system: human foreskin fibroblast cells (HFF cells); assay: Repeated stimulation of collagen I production; assay type: cell-based; conditions: for total collagen I, stimulated twice versus once within a seven day culture period: day 0-2 plus day 2-7 versus day 0-7; for collagen I production after a second stimulation relative to the first stimulation: restimulated after 48 hours, further 5 days
Protocol: Experiments were performed to ensure human fibroblast cells could be stimulated to increase ECM protein production by proteins having peroxidase activity after more than one application of the proteins having peroxidase activity. The capacity to respond repeatedly to the proteins having peroxidase activity provides important utility for the generation of ECM in vitro, particularly given that spent culture media needs to be replaced on a regular basis to maintain the viability of the cells. These experiments were performed using human foreskin fibroblast cells (HFF cells) seeded into 96 well plates at a density of 1.2×10^4 cells/well and cultured for one week in 10% fetal bovine serum/Dulbecco's minimum essential media (10% FBS/DMEM) at 37° C. and 5% CO2 (as described in Example 3). The confluent cells were then starved overnight in serum free DMEM and triplicate wells treated for six hours with MP, ARP and LP as representative proteins having peroxidase activity or the control agents transforming growth factor β2 (TGFβ2; R&D Systems) and 10% FBS (JRH BioSciences). After 48 hours, the conditioned media was collected for measurement of collagen I (as a representative ECM protein) and the cells either restimulated for six hours with fresh solutions containing proteins having peroxidase activity or control agents or the media was replaced with fresh serum free DMEM. The cells were cultured for a further 5 days after which the media was collected a second time for the measurement of collagen I. Media was also collected from replicate wells treated at the start of the experiment and left for 7 days (total culture period) for comparison.

[2] = system: human foreskin fibroblast cells (HFF); assay: Soluble collagen I, III and VI in HFF conditioned media (direct coat ELISA); assay type: cell-based; conditions: for ECM protein levels in the media of HFF cells: 6 hour treatment, following 72 hours; for collagen I concentration in the media: ARP, HRP, SBP 12.5 μg/ml, LP 160 μg/ml, MP 250 μg/ml, untreated control 0.08 μg/ml; for collagen VI in the cell media: untreated control 0.03 ug/ml; for collagen VI levels: both 5 and 7 days; for increase in collagen VI, steady state: 72 hours (ARP response not statistically significant, p=0.08); for collagen III levels: untreated control 0.11 μg/ml
Protocol: Primary human foreskin fibroblast cells (HFF) were seeded into 96 well plates at a density of 1.2×10^4 cells/well and cultured overnight in 10% fetal bovine serum/Dulbecco's minimum essential media (10% FBS/DMEM) at 37° C. and 5% CO2. The cells were then starved overnight in serum free DMEM and triplicate wells treated for six hours with a range of doses of proteins with peroxidase activity; horse radish peroxidase (HRP; 0.2-50 ug/ml), Arthromyces ramosus peroxidase (ARP; 0.2-50 ug/ml), microperoxidase (MP; 8-500 ug/ml), soy bean peroxidase (SBP; 0.2-100 ug/ml) and lactoperoxidase (LP; 10-310 ug/ml) (all obtained from Sigma-Aldrich). At the end of the six hour treatment period, the media was aspirated and replaced with fresh serum free DMEM and the cells cultured for a further 72 hours. […] This assay measures the reduction of oxidized, blue nonfluorescent Alamar Blue reagent to a pink fluorescent dye in the cell medium, such that the higher the amount of reduction, the greater the cell number and/or activity (O'Brien Eur J Biochem 267 2000). Briefly, cells were bathed in a 10% Alamar Blue/phosphate-buffered saline (PBS) solution for 30-60 minutes and fluorescence measured at wavelengths of 485 nm excitation and 595 nm emission using a Wallac Victor Multilabel HTS counter. Relative fluorescent units (RFU) for each sample were normalized to control wells (DMEM only treated cells) and data expressed as mean±standard error of the mean (sem) for triplicate wells. Experiments were repeated at least three times with the combined data from all experiments shown.
The amount of soluble collagen types I, III, and VI in HFF conditioned media was measured by a direct coat ELISA method using standard curves constructed from purified human collagen I, III or VI (extracted from human placenta; col I, BD Biosciences; col III and VI, Rocklands Immunochemicals) and fibronectin (extracted from human plasma, Chemicon). Samples and standards (20 μl/well) were added to a 384 well spectraplate (Packard BioScience) and left at room temperature (RT) overnight. The spectraplate was then washed 6 times with PBS-tween 0.05% (PBS-T) and 2.5% bovine serum albumin (BSA)/PBS blocking solution added to each well and the plate incubated for 1 hour at RT. The plate was then washed 6 times with PBS-T and primary antibody (0.25 μg/ml rabbit-anti-human-collagen I polyclonal; 2 μg/ml rabbit-anti-human-collagen III polyclonal; 0.25 μg/ml rabbit-anti-human-collagen VI polyclonal; 0.2 μg/ml rabbit-anti-human-fibronectin polyclonal, all from Rockland Immunochemicals) in 5% non-fat dairy milk added to each well for four hours at RT. After washing (6×PBS-T), europium tagged anti-rabbit secondary antibody (0.5 μg/ml 1% BSA/PBS; Wallac Oy) was added for 1 hour at RT. After a final wash (6×PBS-T), enhancement solution was added for at least 10 minutes and fluorescence measured at excitation 340 nm and emission 615 nm using a Wallac Victor Multilabel HTS counter. The respective ECM concentration of each sample was determined from the standard curve (μg/ml) and normalized to control wells (DMEM only treated cells) with the mean±sem for triplicate wells calculated. Experiments were repeated at least three times with the combined data from all experiments shown.

[3] = system: human skin; assay: Collagen I and III immunohistochemistry in ex vivo human skin (Franz cell); conditions: intradermal injection 100 μl, 72 hours
Protocol: To confirm proteins with peroxidise activity can stimulate ECM production in human skin, studies were performed on ex vivo skin collected from tissue reduction surgery. The studies were undertaken using a modification of the OECD Test Guideline 428 (2004) Skin Absorption: in vitro method. Freshly excised human skin was collected in a
Hanks balanced salt solution (HBSS) and after being thoroughly washed in sterile, colour free DMEM/F12 media (Dulbecco's Modified Eagle Medium/Hams F12, Invitrogen) to remove surface debris, the subcutaneous fat layer was removed. Circles of full-thickness skin 15 mm in diameter were cut and placed epidermis side up on vertical glass diffusion cells of a Franz cell diffusion system (Crown Glass Co, NJ, USA). The skin was secured between two clamped ground glass joints and allowed to equilibrate and hydrate for approximately 30 minutes with the receptor chambers of the diffusion cells containing colour-free DMEM/F12+1% (v/v) of an antibiotic mix (200 mM L-glutamine, 10,000 units penicillin, 10 mg streptomycin per ml; Sigma, USA). The temperature of the jacketed diffusion cells was maintained at 34° C.±1° C. and the contents were constantly stirred using a mini magnetic stirrer. Proteins with peroxidase activity or a control were injected intradermally into the skin discs in a volume of 100 μl using a 27 gauge needle. After 72 hours the skin discs were removed and bisected with one half fixed in 4% buffered formalin for histological assessment and the other half snap frozen in liquid nitrogen for immunohistochemical detection of collagen I and III protein within the dermis. Frozen skin pieces were processed into cryoblocks, cut onto slides and fixed in acetone/methanol. All slides were blocked with 2% (w/v) bovine serum albumin (BSA) in HBSS and then incubated with either anti-human collagen type I or III primary antibodies (Chemical Credential, ICN or DakoCytomation respectively). The secondary antibody was biotinylated Multi-Link (DakoCytomation) with detection by streptavidin-biotinylated alkaline phosphatase (DakoCytomation). Visualisation was achieved by incubating each section with Naphthol AS/MX phosphate/fast red substrate containing 5 mM levamisole (Sigma). After washing, slides were counter stained with Mayer's Haematoxylin and assessed for collagen expression.

[4] = doses between 6.25 and 50 μg/ml

Molecule	total collagen I, stimulated twice versus once within a seven day culture period [1]	collagen I production after a second stimulation relative to the first stimulation [1]	increase in collagen I compared to controls ([2]; 0.4 μg/ml, 72 hours) [fold]	ECM protein levels in the media of HFF cells [2]	collagen I concentration in the media ([2]; 5 days) [µg/mL]	collagen VI in the cell media ([2]; 7 days) [µg/mL]	collagen VI levels [2]	increase in collagen VI, steady state [2, 4]	collagen III immuno-reactivity [3]	staining intensity for collagen I [3]	collagen III levels ([2]; 5 days) [µg/mL]	also measured
Arthromyces ramosus peroxidase [ARP]	markedly greater total collagen I levels	produced a greater response when stimulated a second time	1.4	increased ECM protein levels dose dependently	0.6	0.11	increased the collagen VI levels	2 fold				increase in collagen I compared to controls ([2]; 25 μg/ml, 72 hours): 5.8 fold; decrease in collagen III compared to control levels ([2]; 25 and 50 μg/ml, 72 hours): 50%; collagen I concentration in the media ([2]; 7 days): 0.6 µg/mL; increase in collagen III ([2]; any dose used, 72 hours): did not induce a significant increase
lactoperoxidase [LP]	markedly greater total collagen I levels	at least equivalent to that obtained with the first stimulation		increased ECM protein levels dose dependently	1.1	0.07	increased the collagen VI levels		did not appear to affect collagen III immuno-reactivity	increased staining intensity for collagen I	0.18	increase in collagen I compared to controls ([2]; 80 μg/ml, 6 h treatment, 72 hours): 4 fold; increase in collagen I compared to controls ([2]; 310 μg/ml, 72 hours): 8 fold; increase in collagen VI levels ([2]; 160 and 310 μg/ml, 72 hours): 2 fold; changes in collagen III levels (non-significant) ([2]; doses from 10-310 μg/ml, 72 hours): 1.5-1.7 fold
microperoxidase [MP]	responded in a similar way to cells treated with TGFβ2	at least equivalent to that obtained with the first stimulation		increased ECM protein levels dose dependently	0.17				increased collagen III staining	increased staining intensity for collagen I		increase in collagen VI ([2]; any dose used, 72 hours): did not induce a significant increase
soy bean peroxidase [SBP]			1.6	increased ECM protein levels dose dependently		0.09	increased the collagen VI levels				0.15	increase in collagen VI ([2]; 0.4 μg/ml, 72 hours): 1.2 fold; increase in collagen VI ([2]; 50 μg/ml, 72 hours): 5.4 fold; increase in collagen I compared to controls ([2]; 25 and 50 μg/ml, 72 hours): 10.5 fold; increase in collagen III, steady state ([2]; between 12.5 and 50 μg/ml, 72 hours): 2.1-2.3 fold
horse radish peroxidase (protein, UniProt P00433 31-338, looked up) Peroxidase C1A: QLTPTFYDNSCPNVSNIVRDTIVNELRSDPRIAASILRLHFHDCFVNGCDASILLDNTTSFRTEKDAFGNANSARGFPVIDRMKAAVESACPRTVSCADLLTIAAQQSVTLAGGPSWRVPLGRRDSLQAFLDLANANLPAPFFTLPQLKDSFRNVGLNRSSDLVALSGGHTFGKNQCRFIMDRLYNFSNTGLPDPTLNTTYLQTLRGLCPLNGNLSALVDFDLRTPTIFDNKYYVNLEEQKGLIQSDQELFSSPNATDTIPLVRSFANSTQTFFNAFVEAMDRMGNITPLTGTQGQIRLNCRVVNSNS				increased ECM protein levels dose dependently		0.13	increased the collagen VI levels	3-3.5 fold	increased collagen III staining	increased staining intensity for collagen I	0.22	increase in collagen I compared to controls ([2]; 0.2 μg/ml, 72 hours): 1.5 fold; increase in collagen VI compared to controls ([2]; 1.56 μg/ml, 72 hours): 2 fold; increase in collagen III compared to controls ([2]; 3.12 μg/ml, 72 hours): 3 fold; increase in collagen I compared to controls ([2]; 50 μg/ml, 72 hours): 10 fold; increase in collagen III compared to controls ([2]; 25 and 50 μg/ml, 72 hours): 4 fold; collagen III level ([2]; 7 days, 12.5 μg/ml, untreated control 0.06 μg/ml): 0.3 µg/mL; increase in collagen I, steady state response ([2]; doses between 6.25 and 50 μg/ml, 72 hours): 9-10 fold
